Structures can show the parent of a compound that is named as a salt. Where two headings read alike, the source gives them in different places.
What was measured:
[1] = Refractive index of high-concentration aqueous solution; assay type: physicochemical
Excerpt: The refractive index of an aqueous solution is commonly known to increase in a solute concentration-dependent manner, and the refractive index of a reagent per unit weight of the reagent varies among individual reagents. Accordingly, two properties are required in order to prepare a high refractive index aqueous solution: (1) an extremely high water-solubility and (2) a […] which allows achieving a high refractive index in a low-concentration aqueous solution.

Serius = settings: relative fluorescence
[2] = tested on: fixed brain tissue suspension; test: 1st delipidation assay: solubilization of fixed brain tissue suspension, turbidity at 600 nm; set-up: species or system mice; settings: Table 1; 10 wt % chemical, fixed mouse brain suspension, 37° C. overnight; PBS = 1.000
Method: Specifically, brains taken out of mice were sheared with a utility knife and then were disrupted by ultrasonication. To each of the resultant suspensions, an equal volume of 8% PFA solution was added to perform fixation at 4° C. for 1 hour. The resultant mixture was centrifuged to remove the supernatant, and the fixed brain tissue was washed with PBS for 3 times. PBS was added so as to obtain 2 mL of a fixed brain tissue suspension per brain. The fixed brain tissue suspension was diluted by 3.5 folds. To 20 μL of the resultant suspension, 130 μL of each 10 wt % chemical was added and was shaken at 37° C. overnight. Thus obtained mixed solutions were subjected to absorbance (turbidity) measurement at 600 nm. It is expected that a chemical solution which reduces the turbidity of a fixed brain suspension allows reducing light scattering by solubilizing lipids, which act as a scattering factor, in the brain tissue.

bovine coagulated blood = test: Decoloring screening: heme eluted from bovine coagulated blood (OD420-OD700); settings: decolorization; for 700 nm calibrated 420 nm Average: OD420 calibrated by OD700; for integrated value 500-700 nm Average: integrated absorbance 500-700 nm
Method: A high-throughput screening system for evaluating the decoloring ability of various compounds was constructed. The screening system involved adding an aqueous solution of each compound to bovine coagulated blood and then measuring the absorbance of heme collected in the supernatant.
Specifically, to bovine blood, an equal amount of 8% PFA solution was added, and reacted at 4° C. overnight. The mixed liquid was centrifuged at 1500×g for 5 minutes, and the supernatant containing PFA was discarded. Then, the same amount of PBS as the original volume of blood was added to prepare a coagulated blood sample. To 150 μL of 10 wt % aqueous solution of each compound, 50 μL of the coagulated blood sample was added, and reacted at 37° C. overnight. The reaction solution was centrifuged at 1500×g for 5 minutes, and then 100 μL of the supernatant was added to a plate so as to be subjected to absorbance measurement. A sample which is suspended in water instead of being dissolved in the water has a weak decoloring effect, but none the less has a high absorbance value. […]

[3] = for 400 nm: OD at 400 nm of the chemical
[4] = Table 3, chemical conc. 70 wt %
[5] = Table 3, chemical conc. 80 wt %

`CN(C)CCSSCCN(C)C` [#0299, Bis(2-dimethyl-aminoethyl) disulfide dihydrochloride] gave an RI [1, 4] of 1.4937.

In the case of `CNCC(O)c1cccc(O)c1.Cl` (racemic) [#1142, DL- Phenylephrine hydrochloride], the RI [1] is reported as 1.4954.

With `NCC1CCC(CN)CC1` (stereo not drawn) [#0071, 1,4-Bis(aminomethyl) cyclohexane] the “Fluorescence quench Average” value (Serius) was 0.56, the pH (Table 1) was 13.3 and the pH (Table 4) was 13.27. For the same molecule, the pH ([…]) was 13.3, the “1st delipidation assay Relative OD600” value [2] was 0.318 and the “700 nm calibrated 420 nm Average” value (bovine coagulated blood) was 3.25. The “integrated value 500-700 nm Average” value (bovine coagulated blood) was 1.90, the 400 nm [3] was 0.054 and the OD400 ([3]; Table 1) was 0.054.

Work on `Cc1cccc(C)c1NC1=NCCCS1.Cl` [#1612, Xylazine hydrochloride] yielded an RI [1, 4] of 1.4956.

For `Cc1cccc[n+]1[O-]` [#1140, 2-Methyl-pyridine N-oxide], the pH (Table 3) was 6.2, the OD400 ([3]; Table 3) was 0.049 and the RI [1, 4] was 1.4919.

`CCCC[n+]1ccccc1.[Br-]` [#0315, 1-Butyl-pyridinium bromide] showed a pH (Table 3) of 5.6, an OD400 ([3]; Table 3) of 0.048 and an RI ([1]; Table 3, chemical conc. 85 wt %) of 1.5090.

With Tween ® 40 [#1455] the “Fluorescence quench Average” value (Serius) was 0.64, the pH (Table 1) was 6.4 and the pH ([…]) was 6.4. For the same molecule, the “1st delipidation assay Relative OD600” value [2] was 0.073, the “700 nm calibrated 420 nm Average” value (bovine coagulated blood) was 1.38 and the “integrated value 500-700 nm Average” value (bovine coagulated blood) was 1.21. It also gave a 400 nm [3] of 0.083 and an OD400 ([3]; Table 1) of 0.083.

In the case of `NCC1CCCC(CN)C1` (stereo not drawn) [#0070, 1,3-Bis(aminomethyl) cyclohexane], the “Fluorescence quench Average” value (Serius) is reported as 0.62, the pH (Table 1) is reported as 13.0 and the pH ([…]) is reported as 13.0. For the same molecule, the “1st delipidation assay Relative OD600” value [2] was 0.286, the “700 nm calibrated 420 nm Average” value (bovine coagulated blood) was 3.15 and the “integrated value 500-700 nm Average” value (bovine coagulated blood) was 1.91. It also gave a 400 nm [3] of 0.079 and an OD400 ([3]; Table 1) of 0.079.

For `NCCN1CCNCC1` [#0338, N-(2-Aminoethyl) piperazine], the pH (Table 3) was 12.4, the OD400 ([3]; Table 3) was 0.062 and the RI ([1]; Table 3, chemical conc. 75 wt %) was 1.4794.

`CCN(CC)C(=O)c1cccnc1` [#0609, N,N-Diethyl- nicotinamide] showed a pH (Table 3) of 6.4, an OD400 ([3]; Table 3) of 0.056 and an RI [1, 5] of 1.4928.

For `[O-][n+]1ccccc1` [#1078, Pyridine N- oxide], the pH (Table 3) was 6.1, the OD400 ([3]; Table 3) was 0.054 and the RI ([1]; Table 3, chemical conc. 60 wt %) was 1.4795.

With `Cc1cccc(C)n1` [#1008, 2,6-Lutidine] the “Fluorescence quench Average” value (Serius) was 0.71, the pH (Table 1) was 9.9 and the pH ([…]) was 9.9. For the same molecule, the “1st delipidation assay Relative OD600” value [2] was 0.314, the “700 nm calibrated 420 nm Average” value (bovine coagulated blood) was 2.00 and the “integrated value 500-700 nm Average” value (bovine coagulated blood) was 2.16. The 400 nm [3] was 0.063 and the OD400 ([3]; Table 1) was 0.063.

In the case of `Cc1ccc(C(=O)C(C)CN2CCCCC2)cc1.Cl` (stereo not drawn) [#1392, Tolperisone hydrochloride], the pH (Table 3) is reported as 5.2, the OD400 ([3]; Table 3) is reported as 0.056 and the RI [1, 4] is reported as 1.4939.

With `C[C@H](CCC(=O)[O-])[C@H]1CC[C@H]2[C@@H]3CC[C@@H]4C[C@H](O)CC[C@]4(C)[C@H]3C[C@H](O)[C@]12C.[Na+]` [#0562, Sodium deoxycholate] the “Fluorescence quench Average” value (Serius) was 1.08, the pH (Table 1) was 8.3 and the pH ([…]) was 8.3. For the same molecule, the “1st delipidation assay Relative OD600” value [2] was 0.170, the “700 nm calibrated 420 nm Average” value (bovine coagulated blood) was 1.18 and the “integrated value 500-700 nm Average” value (bovine coagulated blood) was 0.98. For the same molecule, the 400 nm [3] was 0.054 and the OD400 ([3]; Table 1) was 0.054.

With `CCCC[n+]1ccccc1.[Cl-]` [#0415, 1-Butyl-pyridinium chloride] the pH (Table 3) was 5.5, the OD400 ([3]; Table 3) was 0.055 and the RI ([1]; Table 3, chemical conc. 90 wt %) was 1.4824.

For `CC(C)NCCCN` [#1027, N-Isopropyl-1,3-diaminopropane], the “Fluorescence quench Average” value (Serius) was 0.55, the pH (Table 1) was 13.4 and the pH ([…]) was 13.4. The “1st delipidation assay Relative OD600” value [2] was 0.219, the “700 nm calibrated 420 nm Average” value (bovine coagulated blood) was 1.52 and the “integrated value 500-700 nm Average” value (bovine coagulated blood) was 1.24. The 400 nm [3] was 0.061 and the OD400 ([3]; Table 1) was 0.061.

Molecule `CCCC[N+](CCCC)(CCCC)Cc1ccccc1.[Cl-]` [#0307, Benzyltributyl- ammonium chloride] has an RI [1, 5] of 1.4939.

In the case of `CN(C)CCOC(c1ccccc1)c1ccccc1.Cl` [#0809, Diphen- hydramine hydrochloride], the RI [1, 4] is reported as 1.4990.
